Where two headings read alike, the source gives them in different places.
Legend:
NOX (NADPH oxidase) = biological target: T1, NOX (NADPH oxidase) (Homo sapiens, UniProt P04839); experiment: NOX activity measurement in a cell-free system using a homogenate of differentiated HL-60 cells (NADPH consumption, fluorometry); type: biochemical; conditions: for NOX inhibitory activity (distribution %): share of the black ginger extract's NOX inhibitory activity per compound
T1 construct: endogenous in cells; host or cells: HL-60 cells differentiated with 1% DMSO, used as a sonicated homogenate supernatant (A1) or as viable cells (A2)
T1 sequence (P04839 2-570 limits assumed): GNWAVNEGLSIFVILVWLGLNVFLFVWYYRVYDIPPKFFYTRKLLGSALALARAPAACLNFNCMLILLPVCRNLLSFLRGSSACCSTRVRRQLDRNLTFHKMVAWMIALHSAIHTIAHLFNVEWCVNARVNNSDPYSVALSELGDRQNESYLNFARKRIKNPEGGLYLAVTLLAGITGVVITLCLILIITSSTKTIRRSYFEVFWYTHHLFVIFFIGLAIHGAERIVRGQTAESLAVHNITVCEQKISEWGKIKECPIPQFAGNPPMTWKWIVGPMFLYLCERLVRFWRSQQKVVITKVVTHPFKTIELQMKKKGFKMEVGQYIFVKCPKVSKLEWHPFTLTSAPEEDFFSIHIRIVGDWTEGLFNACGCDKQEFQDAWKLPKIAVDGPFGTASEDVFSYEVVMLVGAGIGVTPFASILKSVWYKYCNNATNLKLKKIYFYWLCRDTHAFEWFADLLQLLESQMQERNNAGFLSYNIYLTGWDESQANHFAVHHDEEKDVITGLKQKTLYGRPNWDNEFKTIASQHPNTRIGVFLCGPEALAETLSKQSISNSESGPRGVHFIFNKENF
T1 sequence (P13498 2-195 partner limits assumed): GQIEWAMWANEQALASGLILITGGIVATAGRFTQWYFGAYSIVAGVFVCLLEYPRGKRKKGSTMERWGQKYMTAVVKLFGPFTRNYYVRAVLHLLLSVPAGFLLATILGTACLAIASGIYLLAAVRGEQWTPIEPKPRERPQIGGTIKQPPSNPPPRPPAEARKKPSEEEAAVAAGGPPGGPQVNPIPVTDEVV
Excerpt: Human myeloid leukemia cell HL-60 repeats proliferation in an undifferentiated state but upon addition of DMSO (dimethyl sulfoxide), retinoic acid or the like, it is known to differentiate into mature granulocytes and lose the ability to proliferate, as accompanied by intracellular expression of NOX (NADPH oxidase) which also serves as an index for differentiation; the expressed NOX can be utilized as an enzyme source for evaluating NOX inhibitory activity.
To induce differentiation into NOX expressing granulocytes, undifferentiated HL-60 cells cultured in a 10% FBS supplemented RPMI 1640 medium were suspended in a 1% DMSO containing, 10% FBS supplemented RPM 11640 medium to give a density of 5×10^5 cells/ml, and the suspension was distributed among Petri dishes (i.d. 10 cm) in 15 ml portions and cultured in a CO2 incubator (37° C.) for three days; thereafter, 10 ml of a 1% DMSO containing, 10% FBS supplemented RPM 11640 medium was added into each of the Petri dishes and culture was performed for an additional three days, thus yielding differentiated HL-60 cells in which NOX was expressed. As described below, the differentiated HL-60 cells, either as a homogenate or in a viable state, were subjected to NOX activity measurement.
After being cooled with ice, the suspension was treated with a sonicator (Bioruptor UCD-250 HSA; product of Cosmo Bio Co., Ltd.) by repeating three cycles of a process under the condition of 4° C. or below that consisted of 20-sec disrupting at maximum power and 30-sec interval cooling, whereupon a cell homogenate was obtained. The homogenate was centrifuged at 1000 g for 4 minutes to remove debris; to the resulting supernatant, nine volumes of a reaction buffer (65 mM phosphate buffered solution containing 1 mM EGTA, 10 μM FAD and 170 mM sucrose; pH 7.0) were added to prepare a homogenate's supernatant for NOX activity measurement (equivalent to 1×10^7 cells/ml).
For reaction with NOX, 50 μl of the above-described cell homogenate was poured into each well of a 96-well microplate and after adding 25 μl of a 0.5 mM SDS solution as a NOX activator and 25 μl of a 0.4 mM NADPH solution as a substrate, the reaction was carried out at 25° C. for 30-90 minutes. The NOX activity was determined by measuring the rate of NADPH consumption through fluorometry (Ex: 355 nm/Em: 460 nm).

NFκB = NFκB inhibiting action: nitrous acid production in LPS-stimulated RAW 264.7 cells (Griess reagent); type: cell-based; conditions: Mus musculus, RAW264.7, 24 h; read-out: NFκB inhibition IC50
Description: It is known that when macrophage-like RAW 264.7 cells are stimulated with LPS (lipopolysaccharide), NFκB is activated, whereby the expression of iNOS (inducible NO synthetase) is enhanced, causing nitrous acid to accumulate in the culture broth due to the enzymatic activity of iNOS; the activation of NFκB can therefore be evaluated by measuring the buildup of nitrous acid in the culture broth.
RAW 264.7 cells were cultured in a 10% FBS supplemented RPMI 1640 culture broth. The cells were then suspended in the same culture broth to give a density of 4×10^5 cells/ml; the suspension was distributed on a 96-well microplate in 100 μl portions per well and subjected to pre-culture (in a CO2 incubator) for 24 hr. […] To measure NFκB inhibitory activity, a DMSO solution of each test sample was dissolved in the foregoing culture broth to make 3-fold serial dilutions having DMSO concentrations of 1% and less and absorbance was measured with and without adding the stimulant LPS.

[1] = Example 4, cell-free system using a homogenate of differentiated HL-60 cells, methoxyflavonoid comparison, read-out: IC50 (μM), NOX inhibitory activity
[2] = cell-free system using a homogenate
[3] = Example 5, cell-free system using a homogenate, compounds extracted and fractionated from black ginger, read-out: NOX inhibition IC50

| Structure (SMILES) | IC50 (NOX (NADPH oxidase); [1]) | IC50 (NFκB) | IC50 (NOX (NADPH oxidase); [3]) | other results |
| --- | --- | --- | --- | --- |
| COc1cccc(/C=C/C(=O)c2ccccc2O)c1OC [2,3-Dimethoxy-2′-hydroxychalcone] | > 100 µM |  |  |  |
| COc1ccc(CCC(=O)c2c(O)cc(OC)cc2O)cc1 [2′,6′-Dihydroxy-4,4′-dimethoxydihydrochalcone] | > 100 µM |  |  |  |
| COc1cc(O)c(C(=O)/C=C/c2ccccc2)c(O)c1 [2′,6′-Dihydroxy-4′-methoxychalcone] | > 100 µM |  |  |  |
| CC(=O)c1cc2ccccc2oc1=O [3-Acetylcoumarin] | > 100 µM |  |  |  |
| COc1ccc(/C=C/C(=O)c2ccccc2)cc1 [4-Methoxychalcone] | > 100 µM |  |  |  |
| COc1ccc(C(=O)/C=C/c2ccccc2)cc1 [4′-Methoxychalcone] | > 100 µM |  |  |  |
| COc1cc(-c2cc(=O)c3c(OC)c(OC)c(OC)cc3o2)cc(OC)c1OC [5,6,7,3′,4′,5′-Hexamethoxyflavone] | ~100 µM |  |  |  |
| COc1ccc(-c2cc(=O)c3c(OC)c(OC)c(OC)c(OC)c3o2)cc1OC [5,6,7,8,3′,4′-Hexamethoxyflavone] | 80 µM |  |  | NOX inhibitory activity (in words) (NOX (NADPH oxidase); [2]): not found to have any strong NOX inhibitory activity |
| COc1cc(OC)c2c(=O)cc(-c3cc(OC)c(OC)c(OC)c3)oc2c1 [5,7,3′,4′,5′-Pentamethoxyflavone] | > 100 µM |  |  |  |
| COc1cc(C)c2c(=O)c(-c3ccccc3)coc2c1 [5-Methyl-7-methoxy-isoflavone] | > 100 µM |  |  |  |
| O=c1cc(-c2ccc(O)c(O)c2)oc2c(O)c(O)ccc12 [7,8,3′,4′-Tetrahydroxyflavone] | ~100 µM |  |  |  |
| COc1ccc(-c2cc(=O)c3ccc(OC)c(OC)c3o2)cc1OC [7,8,3′,4′-Tetramethoxyflavone] | ~100 µM |  |  |  |
| COc1cc2ccc(=O)oc2c(C(C)=O)c1OC [8-Acetyl-6,7-dimethoxycoumarin] | > 100 µM |  |  |  |
| COc1c(O)cc2ccc(=O)oc2c1C(C)=O [8-Acetyl-6-hydroxy-7-methoxycoumarin] | > 100 µM |  |  |  |
| CC(=O)c1c(O)ccc2ccc(=O)oc12 [8-Acetyl-7-hydroxycoumarin] | > 100 µM |  |  |  |
| COc1ccc2ccc(=O)oc2c1C(C)=O [8-Acetyl-7-methoxycoumarin] | > 100 µM |  |  |  |
| COc1cc(OC)c2c(=O)cc(-c3ccc(OC)c(OC)c3)oc2c1 [KPEt-21, 5,7,3′,4′-Tetramethoxyflavone] | 8 µM | 6 µM | 38 µM | NOX inhibitory activity (distribution %) (NOX (NADPH oxidase); Example 5): 12%; NOX inhibitory activity (in words) (NOX (NADPH oxidase); [2]): strong NOX inhibitory activity |
| COc1ccc(-c2oc3cc(OC)cc(OC)c3c(=O)c2OC)cc1 [KPEt-262, 3,5,7,4′-Tetramethoxyflavone] |  | 32 µM | > 100 µM |  |
| CC(=O)OC(C)(C)[C@@H]1Cc2c(ccc3ccc(=O)oc23)O1 [o-Acetylcolumblanetin] | 19 µM |  |  |  |

Now from value to compound, other results behind:

| IC50 (NOX (NADPH oxidase); [1]) | IC50 (NFκB) | IC50 (NOX (NADPH oxidase); [3]) | Structure (SMILES) | other results |
| --- | --- | --- | --- | --- |
| > 100 µM |  |  | COc1ccc2c(=O)c(OC)c(-c3ccc(OC)c(OC)c3)oc2c1 [3,7,3′,4′-tetramethoxyflavone] |  |
| 75 µM |  |  | O=c1cc(-c2ccc(O)c(O)c2)oc2ccccc12 [3′,4′-Dihydroxyflavone] |  |
| 15 µM |  |  | COc1ccc(-c2cc(=O)c3ccccc3o2)cc1OC [3′,4′-Dimethoxyflavone] |  |
| ~100 µM |  |  | COc1ccc(-c2oc3cc(O)cc(O)c3c(=O)c2OC)cc1O [5,7,3′-Trihydroxy-3,4′-dimethoxyflavone] |  |
| > 100 µM |  |  | COc1cc(C2CC(=O)c3c(O)cc(O)cc3O2)cc(OC)c1OC (centres unmarked) [5,7-Dihydroxy-3′,4′,5′-trimethoxyflavanone] |  |
| 23 µM | 32 µM | 70 µM | COc1cc(OC)c2c(=O)c(OC)c(-c3ccc(OC)c(OC)c3)oc2c1 [KPEt-22, 3,5,7,3′,4′-Pentamethoxyflavone] | NOX inhibitory activity (distribution %) (NOX (NADPH oxidase); Example 5): 45%; NOX inhibitory activity (in words) (NOX (NADPH oxidase); [2]): strong NOX inhibitory activity |
|  | 7 µM | 53 µM | COc1cc(OC)c2c(=O)cc(-c3ccccc3)oc2c1 [KPEt-23, 5,7-Dimethoxyflavone] | NOX inhibitory activity (distribution %) (NOX (NADPH oxidase); Example 5): 19% |
|  | 7 µM | 53 µM | COc1ccc(-c2cc(=O)c3c(OC)cc(OC)cc3o2)cc1 [KPEt-25, 5,7,4′-Trimethoxyflavone] | NOX inhibitory activity (distribution %) (NOX (NADPH oxidase); Example 5): 21% |
|  | 55 µM | > 100 µM | COc1cc(O)c2c(=O)c(OC)c(-c3ccc(OC)c(OC)c3)oc2c1 [KPEt-41, 5-hydroxy-3,7,3′,4′-Tetramethoxyflavone] |  |
|  | 27 µM | > 100 µM | COc1cc(OC)c2c(=O)c(OC)c(-c3ccccc3)oc2c1 [KPEt-261, 3,5,7-Trimethoxyflavone] |  |
|  | 42 µM | > 100 µM | COc1cc(O)c2c(=O)cc(-c3ccccc3)oc2c1 [KPEt-421, 5-hydroxy-7-Methoxyflavone] |  |
|  | 56 µM | > 100 µM | COc1ccc(-c2cc(=O)c3c(O)cc(OC)cc3o2)cc1 [KPEt-422, 5-hydroxy-7,4′-Dimethoxyflavone] |  |
|  | 29 µM | > 100 µM | COc1cc(O)c2c(=O)c(OC)c(-c3ccccc3)oc2c1 [KPEt-431, 5-hydroxy-3,7-Dimethoxyflavone] |  |
|  | 30 µM | > 100 µM | COc1ccc(-c2oc3cc(OC)cc(O)c3c(=O)c2OC)cc1 [KPEt-432, 5-hydroxy-3,7,4′-Trimethoxyflavone] |  |
